Source: ChEMBL document CHEMBL3885861, “Open TG-GATES”

Species: Rattus norvegicus
Experiment: Open TG-GATES - Regimen: Single
Type: toxicity, organism-based, Sprague-Dawley
Parameters: regimen Single, gender Male, age 6 weeks
Conditions: in vivo, po, 750 mg/kg, route gavage, dose level High; for APTT / Bas / Eos / Fbg / Hb / Ht / Lym / MCH / MCHC / MCV / Mono / Neu / PT / Plat / RBC / Ret / WBC: tissue Blood; for KIDNEY_L / KIDNEY_R / KIDNEY_TOTAL: tissue Kidney; for LIVER: tissue Liver; for A/G / ALP / ALT / AST / BUN / CRE / Ca / Cl / DBIL / GLC / IP / K / LDH / Na / PL / RALB / TBIL / TC / TG / TP / gamma-GTP: tissue Plasma

SMILES: CN(C/C=C/C#CC(C)(C)C)Cc1cccc2ccccc12 [TERBINAFINE]
- TERMINAL_BW (3 h): 226.5 g
- APTT (3 h): 19.1 s
- Bas (3 h): 0.4%
- Eos (3 h): 0.8%
- Fbg (3 h): 220.4 mg/dL
- Hb (3 h): 12.9 g/dL
- Ht (3 h): 38.4%
- Lym (3 h): 76.8%
- MCH (3 h): 21.1 pg
- MCHC (3 h): 33.5%
- MCV (3 h): 63 fL
- Mono (3 h): 1.8%
- Neu (3 h): 19.8%
- PT (3 h): 12.3 s
- Plat (3 h): 120 x10_4/uL
- RBC (3 h): 610.2 x10_4/ul
- Ret (3 h): 7.2%
- WBC (3 h): 85.9 x10_2/uL
- KIDNEY_L (3 h): 1 g
- KIDNEY_R (3 h): 1 g
- KIDNEY_TOTAL (3 h): 2 g
- LIVER (3 h): 9.8 g
- A/G (3 h): 1.7
- ALP (3 h): 978.4 IU/L
- ALT (3 h): 35.6 IU/L
- AST (3 h): 69.2 IU/L
- BUN (3 h): 9.8 mg/dL
- CRE (3 h): 0.4 mg/dL
- Ca (3 h): 10.6 mg/dL
- Cl (3 h): 103 meq/L
- DBIL (3 h): 0.08 mg/dL
- GLC (3 h): 204.6 mg/dL
- IP (3 h): 9.1 mg/dL
- K (3 h): 3.7 meq/L
- LDH (3 h): 180.8 IU/L
- Na (3 h): 141.6 meq/L
- PL (3 h): 128.6 mg/dL
- RALB (3 h): 3.4 g/dL
- TBIL (3 h): 0.1 mg/dL
- TC (3 h): 76.4 mg/dL
- TG (3 h): 36 mg/dL
- TP (3 h): 5.5 g/dL
- gamma-GTP (3 h): 1 IU/L
- TERMINAL_BW (6 h): 226.5 g
- APTT (6 h): 18 s
- Bas (6 h): 0.6%
- Eos (6 h): 0.8%
- Fbg (6 h): 217.6 mg/dL
- Hb (6 h): 12.8 g/dL
- Ht (6 h): 37.9%
- Lym (6 h): 77.6%
- MCH (6 h): 21.6 pg
- MCHC (6 h): 33.8%
- MCV (6 h): 63.8 fL
- Mono (6 h): 3%
- Neu (6 h): 18%
- PT (6 h): 12.2 s
- Plat (6 h): 124.3 x10_4/uL
- RBC (6 h): 595 x10_4/ul
- Ret (6 h): 7.2%
- WBC (6 h): 79 x10_2/uL
- KIDNEY_L (6 h): 1 g
- KIDNEY_R (6 h): 1 g
- KIDNEY_TOTAL (6 h): 2 g
- LIVER (6 h): 9.7 g
- A/G (6 h): 1.7
- ALP (6 h): 823.4 IU/L
- ALT (6 h): 35.4 IU/L
- AST (6 h): 70 IU/L
- BUN (6 h): 12.4 mg/dL
- CRE (6 h): 0.4 mg/dL
- Ca (6 h): 10.5 mg/dL
- Cl (6 h): 103.2 meq/L
- DBIL (6 h): 0.082 mg/dL
- GLC (6 h): 206.2 mg/dL
- IP (6 h): 9.6 mg/dL
- K (6 h): 3.9 meq/L
- LDH (6 h): 174.2 IU/L
- Na (6 h): 141 meq/L
- PL (6 h): 121.2 mg/dL
- RALB (6 h): 3.5 g/dL
- TBIL (6 h): 0.1 mg/dL
- TC (6 h): 68.2 mg/dL
- TG (6 h): 36.6 mg/dL
- TP (6 h): 5.5 g/dL
- gamma-GTP (6 h): 0.8 IU/L
- TERMINAL_BW (9 h): 225.4 g
- APTT (9 h): 18.8 s
- Bas (9 h): 0.6%
- Eos (9 h): 1%
- Fbg (9 h): 221.6 mg/dL
- Hb (9 h): 12.8 g/dL
- Ht (9 h): 38.2%
- Lym (9 h): 73.2%
- MCH (9 h): 21.3 pg
- MCHC (9 h): 33.6%
- MCV (9 h): 63.6 fL
- Mono (9 h): 2.6%
- Neu (9 h): 22.6%
- PT (9 h): 12.3 s
- Plat (9 h): 114 x10_4/uL
- RBC (9 h): 601.8 x10_4/ul
- Ret (9 h): 6.8%
- WBC (9 h): 85 x10_2/uL
- KIDNEY_L (9 h): 1 g
- KIDNEY_R (9 h): 1 g
- KIDNEY_TOTAL (9 h): 2 g
- LIVER (9 h): 9.3 g
- A/G (9 h): 1.7
- ALP (9 h): 1027.6 IU/L
- ALT (9 h): 32.8 IU/L
- AST (9 h): 64.2 IU/L
- BUN (9 h): 12.2 mg/dL
- CRE (9 h): 0.4 mg/dL
- Ca (9 h): 10 mg/dL
- Cl (9 h): 103.6 meq/L
- DBIL (9 h): 0.07 mg/dL
- GLC (9 h): 205.6 mg/dL
- IP (9 h): 10.4 mg/dL
- K (9 h): 4 meq/L
- LDH (9 h): 163.2 IU/L
- Na (9 h): 141.2 meq/L
- PL (9 h): 112.8 mg/dL
- RALB (9 h): 3.4 g/dL
- TBIL (9 h): 0.1 mg/dL
- TC (9 h): 57.6 mg/dL
- TG (9 h): 24.4 mg/dL
- TP (9 h): 5.4 g/dL
- gamma-GTP (9 h): 1 IU/L
- TERMINAL_BW (24 h): 233.7 g
- APTT (24 h): 18.6 s
- Bas (24 h): 0.8%
- Eos (24 h): 1%
- Fbg (24 h): 216.6 mg/dL
- Hb (24 h): 13.1 g/dL
- Ht (24 h): 38.5%
- Lym (24 h): 78.8%
- MCH (24 h): 21.7 pg
- MCHC (24 h): 34%
- MCV (24 h): 64.1 fL
- Mono (24 h): 3.4%
- Neu (24 h): 15.6%
- PT (24 h): 12.3 s
- Plat (24 h): 122.8 x10_4/uL
- RBC (24 h): 601.6 x10_4/ul
- Ret (24 h): 6.4%
- WBC (24 h): 81.1 x10_2/uL
- KIDNEY_L (24 h): 1.1 g
- KIDNEY_R (24 h): 1.1 g
- KIDNEY_TOTAL (24 h): 2.2 g
- LIVER (24 h): 10.8 g
- A/G (24 h): 1.8
- ALP (24 h): 1101 IU/L
- ALT (24 h): 51.6 IU/L
- AST (24 h): 89.4 IU/L
- BUN (24 h): 13.2 mg/dL
- CRE (24 h): 0.4 mg/dL
- Ca (24 h): 10.3 mg/dL
- Cl (24 h): 103.6 meq/L
- DBIL (24 h): 0.076 mg/dL
- GLC (24 h): 203.4 mg/dL
- IP (24 h): 8.6 mg/dL
- K (24 h): 3.7 meq/L
- LDH (24 h): 203.6 IU/L
- Na (24 h): 141.6 meq/L
- PL (24 h): 106 mg/dL
- RALB (24 h): 3.6 g/dL
- TBIL (24 h): 0.1 mg/dL
- TC (24 h): 57.8 mg/dL
- TG (24 h): 29.2 mg/dL
- TP (24 h): 5.5 g/dL
- gamma-GTP (24 h): 1.8 IU/L
